Assay [1] is described as follows: Inhibition of alpha-chymotrypsin (unknown origin) using N-succinyl-L-phenylalanine-p-nitroanilide as substrate preincubated for 25 mins by microplate reader method. Also noted: species or system Homo sapiens.
For a further assay, the species on record is Homo sapiens. Nature of the assay: Inhibition of alpha-chymotrypsin (unknown origin) using N-succinyl-L-phenylalanine-p-nitroanilide as substrate at 500 uM preincubated for 25 mins by microplate reader method.
A short description of assay [2]: Competitive inhibition of alpha-chymotrypsin (unknown origin) using N-succinyl-L-phenylalanine-p-nitroanilide as substrate. Also noted: species or system Homo sapiens.
Assay [3] is described as follows: Mixed inhibition of alpha-chymotrypsin (unknown origin) using n-succinyl-l-phenylalanine-p-nitroanilide as substrate. Also noted: species or system Homo sapiens.

20 compounds from ChEMBL document CHEMBL3817848, “Synthesis and in vitro α-chymotrypsin inhibitory activity of 6-chlorobenzimidazole derivatives” (Bioorg Med Chem, 2016) can be followed below.

pIC50, pKi: −log10 of the molar value. A value given as a limit tells only on which side of the number the result lay.

The pIC50 is the IC50 on a negative log10 scale, so that one unit is a factor of ten. High values mean a small IC50, low ones a large IC50. As usually defined, the inhibition is how much of the control response was suppressed. A lower inhibition goes with a weak effect. By pKi is commonly meant the Ki on a negative log10 scale, so that one unit is a factor of ten. A higher pKi goes with a low Ki. `CCOc1cc(-c2nc3ccc(Cl)cc3[nH]2)ccc1O`: the pIC50 in assay [1] was 4.80. For the same compound, the inhibition in the assay listed under Homo sapiens is over 50%. Further, the pKi in assay [2] was 4.76.
On the same counts, the results for `Clc1ccc2nc(-c3cccc4ccccc34)[nH]c2c1` are 4.68, over 50% and 4.60.
In assay [1], `N#Cc1ccc(-c2nc3cc(Cl)ccc3[nH]2)cc1` showed a pIC50 of under 3.30. The inhibition in the assay listed under Homo sapiens was under 50%.
Regarding `Clc1ccc2[nH]c(-c3ccccc3)nc2c1`, the pIC50 in assay [1] is under 3.30. Moreover, the inhibition in the assay filed under Homo sapiens was under 50%.
`Clc1ccc2nc(-c3cccnc3)[nH]c2c1` showed a pIC50 in assay [1] of 4.31. In the assay listed under Homo sapiens, this compound yielded an inhibition of over 50%. In assay [2], this compound gave a pKi of 4.30.
In the case of `O=[N+]([O-])c1ccc(-c2nc3cc(Cl)ccc3[nH]2)cc1`, the pIC50 in assay [1] is 3.33. The compound further registered an inhibition in the assay filed under Homo sapiens of under 50%.
Take `COc1cccc(-c2nc3ccc(Cl)cc3[nH]2)c1`: the pIC50 in assay [1] was 4.42. The compound further displayed an inhibition in the assay listed under Homo sapiens of over 50%. The pKi in assay [3] is 4.44.
Turning to `Clc1ccc2[nH]c(/C=C/c3ccccc3)nc2c1`, the pIC50 in assay [1] is 3.31. This compound displayed an inhibition in the assay listed under Homo sapiens of under 50%.
As for `COc1ccc(-c2nc3ccc(Cl)cc3[nH]2)cc1OC`, in assay [1], the pIC50 was 4.83. Further, in the assay filed under Homo sapiens, the inhibition is over 50%. The compound further gave a pKi in assay [2] of 4.79.
In the same order, the values of `Oc1ccc(-c2nc3ccc(Cl)cc3[nH]2)c(O)c1` are 4.46, over 50% and 4.48.
In the same order, the values of `Clc1ccc(-c2nc3ccc(Cl)cc3[nH]2)c(Cl)c1` are 4.45, over 50% and 4.40.
Regarding `O=[N+]([O-])c1ccc(Cl)c(-c2nc3ccc(Cl)cc3[nH]2)c1`, the pIC50 in assay [1] was under 3.30. The compound also had an inhibition in the assay filed under Homo sapiens of under 50%.
In the same order, the values of `Clc1ccc2nc(-c3cccc(Br)c3)[nH]c2c1` are 3.34 and under 50%.
As for `CN(C)c1ccc(-c2nc3ccc(Cl)cc3[nH]2)cc1`, in assay [1], the pIC50 is 4.62. In the assay filed under Homo sapiens, the inhibition was over 50%. For the same compound, the pKi in assay [2] is 4.76.
Consider `Cc1ccc(-c2nc3cc(Cl)ccc3[nH]2)cc1`, for which the pIC50 in assay [1] is under 3.30. In addition, the inhibition in the assay filed under Homo sapiens is under 50%.
`Cn1c(-c2ccco2)nc2ccc(Cl)cc21`: the pIC50 in assay [1] was 4.03. The compound further showed an inhibition in the assay filed under Homo sapiens of over 50%. Moreover, the pKi in assay [2] is 4.15.
The compound `CC(C)c1ccc(-c2nc3ccc(Cl)cc3[nH]2)cc1` had a pIC50 in assay [1] of 3.37. Besides, the inhibition in the assay filed under Homo sapiens was under 50%.
Turning to `Fc1ccccc1-c1nc2ccc(Cl)cc2[nH]1`, the pIC50 in assay [1] was 3.93. This compound displayed an inhibition in the assay filed under Homo sapiens of over 50%. Moreover, the pKi in assay [2] is 4.10.
On the same counts, the results for `Clc1ccc2nc(-c3c(Cl)cccc3Cl)[nH]c2c1` are 4.02, over 50% and 4.00.
In turn, `Oc1ccccc1-c1nc2cc(Cl)ccc2[nH]1` showed a pIC50 in assay [1] of under 3.30. Also, the inhibition in the assay listed under Homo sapiens is under 50%.
